Assay results published in US20230218654A1, “COMPOSITIONS AND METHODS FOR TREATING HYPERGLYCEMIA IN TYPE-2 DIABETES” (The Board of Regents of the university of Oklahoma, priority 2020, published 2023).

Tests used:
[1] = test system: differentiated C2C12 myocytes; test: Western blot of insulin signaling in differentiated C2C12 myocytes; format: cell-based; conditions: 500 nM, 1 h, then 100 nM insulin in time course
Description: Differentiated C2C12 myocytes were pre-treated with MLN4924 (500 nM) for 1 h followed by 100 nM insulin treatment in time course.
C2C12 myoblast cells were cultured in DMEM medium supplemented with 10% FBS. When cells grow to 60% confluency, differentiation into myocytes was induced by culturing cells in DMEM supplemented with 2% horse serum for 4-6 days. Cells were then serum starved overnight and treated with 500 nM MLN4924 or DMSO for 6 h and then stimulated with 100 nM insulin for 1 hour as indicated. Glucose uptake was measured with a Glucose uptake Glo^tm assay kit that was purchased from Promega (Madison, WI).
Skeletal muscle is a major organ that is responsible for the majority of the blood glucose clearance during postprandial state. Insulin resistance in muscle causes impaired insulin-stimulated glucose uptake that contributes to hyperglycemia in diabetes. To determine if CRL inhibition in muscle cells may contribute to the insulin sensitizing and glucose lowering effect in obese mice, differentiated C2C12 myocytes were treated with MLN4924 to inhibit CRLs (FIG. 8A). […] To further determine if MLN4924 treatment increases muscle glucose clearance, a glucose tolerance test (GTT) was performed, in which reduction of glucose excursion is mainly attributed to blood glucose clearance by muscle.

obese mice = test: Hyperinsulinemic-euglycemic clamp study; format: in vivo
Description: A hyperinsulinemic-euglycemic clamp study was conducted in which obese mice were treated with vehicle or MLN4924.

[2] = test system: male C57BL/6J mice fed C or WD; test: Intervention study: MLN4924 initiated after 8 weeks of WD feeding; format: in vivo
Description: MLN4924 (60 mg/kg, SQ) was given every other day for the last 8 weeks of the 16-week feeding. For both cohorts, body weight was measured weekly. Results are mean ±SEM. n=5-7. “*”, vs C+Veh; “#”, vs. WD+Veh, p<0.05. ns= Not significant.
Male C57BL/6J mice were fed chow or WD for 16 weeks. Vehicle or MLN4924 treatment (60 mg/kg, SQ, once every two days) was initiated after 8 weeks of WD feeding. Analyses were performed after 16 weeks of feeding. Results are mean ± SEM. n=5-8. “*”, vs C+Veh; “#”, vs. WD+Veh, p<0.05. Normalized densitometry was shown in low panel bar graphs.
Male C57BL/6J mice were purchased from the Jackson Laboratory (Bar Harbor, ME). Mice were fed a regular chow (C) diet or a Western diet (WD) that contains 42% fat calories and 0.2% cholesterol content (TD. 88137, Envigo Inc. Indianapolis, IN).
MLN4924 and TAS4464 were purchased from MedChemExpress (MCE, Monmouth Junction, NJ). For cell treatment, MLN4924 and TAS4464 were dissolved in DMSO. Cells were serum starved overnight and then treated with MLN4924, TAS4464 and/or insulin as indicated. For injection in mice, MLN4924 and TAS4464 were first dissolved in DMSO, which was further suspended in 10% (2-hydroxypropyl)-β-cyclodextrin (Sigma, St. Louis, MO). The final solution contains 1% DMSO. The subcutaneous injection volume is 200 µl/mouse.
Lipids were extracted in a mixture of chloroform: methanol (2:1; v: v), dried under nitrogen, and resuspended in isopropanol containing 1% triton X-100. Total cholesterol, free cholesterol and TG were measured with assay kits following the manufacturer’s instruction. Total cholesterol assay kit and TG assay kit were purchased from Pointe Scientific (Canton, MI).
Aspartate aminotransferase (AST) and alanine aminotransferase (ALT) assay kits were purchased from Pointe Scientific (Canton, MI). Free fatty acid assay kit was purchased from Biovision Inc. (Milpitas, CA). Insulin ELISA kit was purchased from Crystal Chem Inc. (Elk Grove Village, IL).
Next investigated was the glucose lowering effect of CRL inhibition in mice rendered obese and insulin resistant by 16-weeks of WD feeding. […] Next conducted was an intervention study in which MLN4924 treatment was initiated after mice were fed WD for 8 weeks that rendered mice obese and insulin resistant. […] In summary, robust evidence is provided herein that pharmacological CRL inhibition is an effective approach to lowering hyperglycemia.

[3] = WD 16 weeks, 60 mg/kg SQ every other day for last 8 weeks

With `NS(=O)(=O)OC[C@@H]1C[C@@H](n2ccc3c(N[C@H]4CCc5ccccc54)ncnc32)C[C@@H]1O` [MLN4924, ((1S,2S,4R)-4-(4-((1S)-2,3-dihydro-1H-inden-1-ylamino)-7H-pyrrolo[2,3-d]pyrimidin-7-yl)-2-hydroxycyclopentyl) methyl sulfamate] the “IRS1 and IRS2 degradation upon insulin stimulation” value [1] was “delayed IRS1 and IRS2 degradation”, the “insulin activation of AKT phosphorylation” value [1] was “increased insulin activation of AKT phosphorylation” and the glucose infusion rate (obese mice) was ~ 30 mg/kg/min. The “plasma insulin level during the clamp procedure” value (obese mice) was ~ 3.75 ng/ml, the “blood glucose (6 h fast)” value [2, 3] was “normalized blood glucose” and the “hepatic steatosis as measured by liver TGs” value [2, 3] was “lowered hepatic steatosis”. For the same compound, the “serum AST” value [2, 3] was “decreased serum AST”, the “liver IRS protein abundance” value ([2]; WD 16 weeks, 60 mg/kg SQ once every two days after 8 weeks) was “increases liver IRS protein abundance” and the “hepatic AKT phosphorylation” value ([2]; chronic WD-fed mice) was “increased hepatic AKT phosphorylation”.
